Measurements from US11414402B2, “Sulfonamide-substituted cyanopyrrolidines with activity as DUB inhibitors” (MISSION THERAPEUTICS LIMITED, priority 2017, dated 2022).
Like-named read-outs stand apart in the source and are kept apart here.

Columns and labels:
[1] = biological target: UCHL1 (Homo sapiens (Human), UniProt P09936); experiment: UCHL1 biochemical IC50 assay (fluorescence polarisation)
Procedure: The UCHL1 construct was PCR amplified and cloned into a pFLAG-CMV-6a vector (Sigma-Aldrich) with an N-terminal FLAG tag. HEK293T cells were transfected with FLAG-UCHL1 using TransIT-LT1 transfection reagent (Mirus) according to the manufacturer's instructions. Cells were harvested 40 hours after transfection. […] The resin was washed two times with low salt buffer and one time with high salt buffer (20 mM Tris, pH 7.5, 500 mM NaCl, 0.5 mM EDTA, 5 mM beta-mercaptoethanol, protease inhibitors (complete mini, Roche) and phosphatase inhibitors (PhosSTOP mini, Roche). To elute the bound UCHL1, elution buffer (10 mM Tris, pH 7.5, 150 mM NaCl, 0.5 mM EDTA, 10% glycerol, 0.5% NP40, 5 mM beta-mercaptoethanol, 0.15 mg/ml 3× FLAG peptide (Sigma-Aldrich)) was added to the resin and incubated at 4° C. for 2.5 hours rotating. The resin was centrifuged at 4000 rpm for 30 seconds, and the supernatant containing purified FLAG-UCHL1 was removed and stored at −80° C.
UCHL1 was diluted in reaction buffer (20 mM Tris, pH 7.5, 100 mM NaCl, 0.05% Tween 20, 0.5 mg/ml BSA, 5 mM beta-mercaptoethanol) to the equivalent of 0, 0.01, 0.05, 0.1, 0.5, and 1 μl/well. Buffer was optimised for optimal temperature, pH, reducing agent, salts, time of incubation, and detergent. Reactions were initiated by the addition of 50 nM of TAMRA labelled peptide linked to ubiquitin via an iso-peptide bond as fluorescence polarisation substrate. Reactions were incubated at room temperature and read every 2 min for 120 min. Readings were performed on a Pherastar Plus (BMG Labtech). λ Excitation 540 nm; λ Emission 590 nm.
A typical 8-point dilution series to be 30, 10, 3, 1, 0.3, 0.1, 0.03, 0.01 μM final. […] Either 1 μl of 50% DMSO or diluted compound was added to the plate. UCHL1 was diluted in reaction buffer (20 mM Tris, pH 7.5, 100 mM NaCl, 0.05% Tween 20, 0.5 mg/ml BSA, 5 mM beta-mercaptoethanol) to the equivalent of 0.05 μl/well and 10 μl of diluted UCHL1 was added to the compound. Enzyme and compound were incubated for 30 min at room temp. Reactions were initiated by the addition of 50 nM of TAMRA labelled peptide linked to ubiquitin via an iso-peptide bond as fluorescence polarisation substrate. Reactions were read immediately after addition of substrate and following a 2-hour incubation at room temperature. Readings were performed on a Pherastar Plus (BMG Labtech). λ Excitation 540 nm; λ Emission 590 nm.

[2] = biological target: USP30 (Homo sapiens (Human), UniProt Q70CQ3); experiment: USP30 biochemical IC50 assay (fluorescence polarisation)
Chain of USP30 (Q70CQ3 57-517): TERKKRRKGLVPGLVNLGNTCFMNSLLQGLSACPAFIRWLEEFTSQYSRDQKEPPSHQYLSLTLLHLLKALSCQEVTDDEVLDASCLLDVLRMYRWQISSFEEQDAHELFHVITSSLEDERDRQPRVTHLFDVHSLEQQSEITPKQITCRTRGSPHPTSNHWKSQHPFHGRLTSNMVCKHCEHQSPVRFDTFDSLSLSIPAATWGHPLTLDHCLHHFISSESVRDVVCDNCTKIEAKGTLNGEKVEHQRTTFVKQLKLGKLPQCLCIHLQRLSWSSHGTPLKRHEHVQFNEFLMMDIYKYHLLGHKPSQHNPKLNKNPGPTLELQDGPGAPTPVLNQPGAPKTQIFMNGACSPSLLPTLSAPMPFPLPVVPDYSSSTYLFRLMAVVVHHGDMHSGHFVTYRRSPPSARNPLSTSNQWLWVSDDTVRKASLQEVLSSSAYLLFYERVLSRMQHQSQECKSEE
Procedure: A typical 8-point dilution series would be 100, 30, 10, 3, 1, 0.3, 0.1, 0.03 μM final. […] Either 1 μl of 50% DMSO or diluted compound was added to the plate. USP30 was diluted in reaction buffer (40 mM Tris, pH 7.5, 0.005% Tween 20, 0.5 mg/ml BSA, 5 mM beta-mercaptoethanol) to the equivalent of 0.05 μl/well and 10 μl of diluted USP30 was added to the compound. Enzyme and compound were incubated for 30 min at room temp. Reactions were initiated by the addition of 50 nM of TAMRA labelled peptide linked to ubiquitin via an iso-peptide bond as fluorescence polarisation substrate. Reactions were read immediately after addition of substrate and following a 2-hour incubation at room temperature. Readings were performed on a Pherastar Plus (BMG Labtech). λ Excitation 540 nm; λ Emission 590 nm.

Chain of UCHL1 (P09936 whole entry): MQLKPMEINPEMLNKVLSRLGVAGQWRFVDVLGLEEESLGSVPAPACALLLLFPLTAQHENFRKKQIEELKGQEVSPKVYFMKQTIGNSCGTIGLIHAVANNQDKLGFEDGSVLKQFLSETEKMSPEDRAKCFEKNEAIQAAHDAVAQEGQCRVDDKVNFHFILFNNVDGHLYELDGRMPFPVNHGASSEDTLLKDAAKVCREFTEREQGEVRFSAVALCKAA

Row | IC50 ([1]; FLAG-UCHL1, 30 min preincubation at room temp, TAMRA-peptide-ubiquitin substrate 50 nM, read after 2-hour incubation, read-out: IC50 range) [µM] | IC50 ([2]; USP30 CD (57-517), 30 min preincubation at room temp, TAMRA-peptide-ubiquitin substrate 50 nM, read after 2-hour incubation, read-out: IC50 range) [µM] | IC50 [1] [µM] | IC50 [2] [µM] | SMILES
1 | 1 to 10 | 0.1 to 1 | – | – | CN(C1CCN(C#N)C1)S(=O)(=O)c1ccc(Oc2ccc(C(F)(F)F)cn2)cc1 (stereo not shown) [Example 25, N-(1-cyanopyrrolidin-3-yl)-N-methyl-4-((5-(trifluoromethyl)pyridin-2-yl)oxy)benzenesulfonamide]
2 | – | – | 10 to 100 | 0.1 to 1 | N#CN1CCC(S(=O)(=O)Nc2ccc(-c3ccccc3)cc2)C1 (stereo not shown) [Example 26, N-([1,1′-biphenyl]-4-yl)-1-cyanopyrrolidine-3-sulfonamide]
